Results as given in patent US5763406A, “Method for the treatment of conditions caused by herpes virus infections” (Carlbiotech, Ltd. A/S, priority 1991, dated 1998).

What was measured:
[1] = test system: HSV-1 infection; experiment: Patients' earlier aciclovir treatment of HSV-1 outbreaks (case history); type: in vivo, human
Method: The patient had experienced similar lesions during the past 18 years, primarily during the winter months. They would usually experience 3-5 outbreaks each winter lasting 10-14 days before complete resolution. One year ago, they applied aciclovir topical to the lesions and on that occasion, resolution occured in 6-8 days.
When the lesions are treated with a 5% aciclovir ointment, topically, resolution is normally achieved within 6-7 days. […] On this occasion, […] denied any recent use of any topical or systemic therapy.
The patient had experienced outbreaks from HSV-1 […]. Five years ago the patient started to use aciclovir topically on a regular basis, but switched to take aciclovir orally 11/2 years ago. Normally the outbreaks would be on the lips, but occasionally the outbreaks would also appear on the neck and on the buccal mucosa. Without any form of medication, complete resolution would happen within 2-3 weeks and complete resolution by using aciclovir orally would happen within 1-2 weeks.

[2] = Systemic or local effects reported by treated patients; type: in vivo, human

SMILES | time to resolution ([1]; Example 1 patient, aciclovir topical one year ago) [days] | time to resolution ([1]; Example 2 patient, 5% aciclovir ointment, topically) [days] | effect of very early treatment of the lesions ([1]; Example 2 patient, aciclovir) | effect from the use of aciclovir ([1]; Example 4 patient) | time to complete resolution ([1]; Example 5 patient, aciclovir orally) | systemic or local effects ([2]; Example 1, 10 mg/ml topical three times daily) | systemic or local effects ([2]; Example 4, 10 mg/ml topical four times in 36 hours) | systemic or local effects ([2]; Example 5, 10 mg/ml topical two times daily)
Nc1nc2c(ncn2COCCO)c(=O)[nH]1 [aciclovir] | 6 to 8 | 6 to 7 | has not been able to stop the vesicles developing into painful ulcers although the ulcers tend to decrease in size | never experienced any effect | 1-2 weeks | – | – | –
C[C@@H](N)C(=O)N[C@@H](CO)C(=O)N[C@H](C(=O)N[C@H](C(=O)N[C@H](C(=O)N[C@@H](CC(N)=O)C(=O)N[C@@H](Cc1ccc(O)cc1)C(=O)N[C@H](C(N)=O)[C@@H](C)O)[C@@H](C)O)[C@@H](C)O)[C@@H](C)O [(D-Ala^1)-Peptide-T Amide, D-Ala-Ser-Thr-Thr-Thr-Asn-Tyr-Thr-NH2] | – | – | – | – | – | did not report any systemic or local effects other than those noted above | did not experience any systemic or local effects other than those noted above | did not observe any systemic or local effects other than those noted above
